Columns and labels:
[1] = target: T1, recombinant human PD-L1 protein (rhPD-L1) (Homo sapiens, UniProt Q9NZQ7); assay: Microscale thermophoresis (MST) binding assay; settings: rhPD-L1, n = 3, 1:1 binding model
T1 construct: purchased R&D Systems 9049-B7-100

[2] = target: T2, interaction between PD-L1 and PD-1 (Homo sapiens, UniProt Q9NZQ7); assay: FRET reporter assay, SHP-2-CFP / PD-1-YFP in CHO-K1 cells activated by rhPD-L1; format: cell-based; settings: CHO-K1 cells co-transfected PD1-SHP2, PD-L1 10 µM, n = 5, read-out: Bioactivity (IC50), block of PD-L1/PD-1 interaction in cells
T2 construct: expressed in transfected cells; host or cells: CHO-K1
T2 sequence (Q9NZQ7 19-239 limits assumed): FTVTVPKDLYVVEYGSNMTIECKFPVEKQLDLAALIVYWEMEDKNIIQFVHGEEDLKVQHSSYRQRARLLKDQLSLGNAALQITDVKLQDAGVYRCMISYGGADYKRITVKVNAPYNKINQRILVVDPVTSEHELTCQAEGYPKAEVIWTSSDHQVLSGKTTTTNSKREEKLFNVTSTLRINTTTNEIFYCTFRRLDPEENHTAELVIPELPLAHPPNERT

[3] = system: CTLL-2 cells; assay: CTLL-2 cell proliferation reactivation assay (CyQUANT); format: cell-based; settings: for IC50: CTLL-2 cells with rhPD-L1 chimera, 72 h, n = 3
From the text: Next, we investigated the capacity of the compound to reactivate proliferation of CTLL-2 cells. These cytotoxic T cells expressing […] are maintained in a dormant state when they are cultivated in the presence of recombinant hPD-L1; their proliferation, monitored by flow-cytometry (using the CyQuant cell proliferation test), is reactivated when they are exposed to a PD-L1 inhibitor, thus mimicking a reactivation of the immune system. […] The replacement of the Me substituent of compound 2 with an ethyl group abolished the capacity of the product to promote CTLL-2 cell proliferation. The same result was obtained with a compound bearing a […] chain instead of the ethyl chain (not shown).
The CyQUANT cell proliferation kit (Thermofischer, Waltham, MA, USA) was used to evaluate the growth of the CTLL-2 cell line (ATCC). Cells were prepared by growing them in the presence or absence of rhPD-L1 chimera (R&D) plus the test compound, and then transferring them to microplates for assay according to manufacturer’s instructions (Molecular Probes C35011). A cell-based standard curve was first established, with the amount of fluorescence correlated to the quantity of cells in the wells. Cells were incubated with increasing concentrations of compounds, over a period 72 h. Positive (nivolumab) and negative (no rhPD-L1 Fc chimera) controls were performed to calibrate the assay. IC50 were determined for the restoration of proliferation by global curve fitting with Graphpad. Experiments were repeated three times and IC50 values averaged.

[4] = target: T3, PD-L1 dimers (His-labeled PD-L1 titrated with unlabeled His-PD-L1) (Homo sapiens, UniProt Q9NZQ7); assay: MST dimerization binding assay; settings: test compound 1 µM, labeled His-PD-L1 10 nM
T3 construct: purchased Biotechne 9049-B7-100
T3 sequence (Q9NZQ7 19-239 limits assumed): as above
From the text: These observations led us to prioritize compound 5 as a hit compound owing to its potent capacity to bind to PD-L1, to interrupt PD-1/PD-L1 signaling and to reactivate CTLL-2 cell proliferation. Moreover, we selected this compound for an additional reason: its unique capacity to promote dimerization of rhPD-L1. This later property was evidenced using a specific dimerization binding assay which monitors the formation of PD-L1 dimers from a His-labeled PD-L1 protein by MST. The use of a PD-L1 protein with a polyhistidine (6xHis) tag at the C-terminus allows the non-covalent, stable, and selective labeling of the protein with a red fluorescent dye, to facilitate the formation of PD-L1 dimers. […] There is no doubt that this compound is a robust inhibitor of the PD-1/PD-L1 checkpoint.
A labeled His-PD-L1 protein was titrated against an unlabeled His-PD-L1 protein with or without compounds of interest. The test compound (1 µM) and the His-labeled PD-L1 protein (10 nM) are kept constant whereas the unlabeled His-PD-L1 (1 µM) varies with a serial 1:1 ratio of 16 gradients. MST was performed using the same instrument as mentioned above. His-PD-L1 protein (Biotechne # 9049-B7-100) was diluted to 200 nM in commercial PBS-T buffer and was labeled as indicated above. The RED-tris-NTA dye was diluted in PBS-T to 100 nM. The mix was incubated at room temperature in the dark for 30 min. Capillaries were filled individually.

[5] = EPR spin-trapping assay with DMPO under Fenton conditions; settings: for DMPO kr / DMPO kr/ka: DMPO 1 mM; for DMPO kr: methanol, reaction with •OCH3; for DMPO kr/ka: ka (DMPO-•OH) = 4.3 × 10^9 M^−1 s^−1
Protocol: (§1) We used two electron paramagnetic resonance (EPR)-based assays to compare the antioxidant potency of the compounds. The first assay was a free radical scavenging test with 1,1-diphenyl-2-picrylhydrazyl (DPPH) to monitor the decay in the EPR signal intensity in the presence of the diamagnetic hydrazine compound. The intensity of the typical EPR spectrum of DPPH (100 μM) decreases in the presence of increasing concentration of the test compounds (Figure 6). The attenuation of the EPR signal reflects the antioxidant effect, clearly visible with each compound. From the EPR data, the concentration of the compound required to reduce the signal intensity by 50% (EC50) was calculated. […] The second assay relies on the use of the spin-trapping agent DMPO (5,5-dimethyl-1-pyrroline N-oxide) to monitor the formation of an oxygen centered radical generated under Fenton conditions (hydrogen peroxide plus ferrous ions). We used methanol as a solvent, thus leading to a monitoring of the methoxy radical DMPO/^•OCH3 characterized with a typical six-line EPR signal with hyperfine coupling constants aN = 13.9 G and aH = 8.3 G (Figure 7). The decrease in the EPR signal was evaluated with the different compounds to compare their relative antioxidant capacity. […] For each compound, we calculated the reaction constants (kr in Table 2). The antioxidant capacity of compounds 4–5 was reduced compared to edaravone (1). Nevertheless, compound 5 maintains a significant activity, with a kr value reduced by a factor 2.6 compared to the reference product 1. […] The value obtained with EDA is consistent with that given in the literature and thus validates our measurements.
(§2) An X-band Brüker Elexsys E500 spectrometer operating at 9.86 GHz was used to perform CW-EPR experiments. CW-EPR spectra were recorded at room temperature with a microwave power of 5.024–10.02 mW and a modulation amplitude of 1–2 G that considers non-saturation conditions. The free radical scavenging molecule DPPH (1,1-diphenyl-2-picrylhydrazyl) and spin trap agent DMPO (5,5-dimethyl-1-pyrroline N-oxide) were used to monitor the antioxidant activity of the test compounds. The solution mixture (50 μL) was filled into a glass capillary, placed in 4 mm quartz EPR tubes for analysis. The inhibition of DPPH (%) was calculated with the equation: I (%) = ((I0 − I)/I0) × 100 where I0 is the area of the EPR spectrum of DPPH (control sample), and I the area of the DPPH spectrum with antioxidant compound. The rate constant for the reaction of antioxidant compounds with ^•OCH3 is expressed by the equation: 1/Ra = 1/Rf + ((Kr [AH])/(ka [DMPO] Rf)) where Rf, and Ra indicate EPR signal area (double integration of EPR signal) of ^•OCH3, DMPO/^•OCH3, respectively. ka and [DMPO] are constants, and a plot of 1/Ra vs. [AH] (concentration of antioxidant compound) gives a straight line with 1/Rf as an intercept and kr/(ka[DMPO]Rf) as the slope. The rate constant for the reaction of ^•OCH3 with antioxidant compounds (kr) is expressed by the equation: kr = (ka [DMPO] × slope)/− intercept.

[6] = EPR DPPH free radical scavenging assay; settings: DPPH 100 µM, compound 2 to 90 µM
Protocol: as §1, §2

[7] = Aldehyde (4-HNE) reactivity by HRMS; settings: 180 min, 37 °C, [M–H]-
From the text: Edaravone (1) is a reactive molecule known to form adducts with different aromatic aldehydes, such as formylpterin and vanillin [15, 19]. In aqueous solution, it forms mono- and bis-adducts with the aldehyde compound vanillin [20]. […] Here we have compared the reactivity of compounds 1–5 using another aldehyde with a major biological relevance, 4-hydroxynonenal. 4-HNE is a product of lipid peroxidation implicated in the pathogenesis of diverse human diseases, such as diabetes, aging-related diseases and cancers. […] Edaravone is known to react covalently with 4-HNE to form mono-, bis-, and tris-adducts in solution [25]. We used high-resolution mass spectrometry (HRMS) to monitor the formation of the covalent adducts generated with the phenyl-pyrazolones and 4-HNE after 3 h of incubation at physiological temperature in an aqueous buffer. The formation of mono-, bis-, and tris-adducts was detected unambiguously with each compound (Figure 8). A reaction scheme is represented in Figure 9 for compound 5. In each case, the pyrazolone compound (nucleophile) easily reacted with 4-HNE to generate the different species, each characterized by their corresponding mass (m/z), the ring-double-bond value (rdb, valence values of elements in structure), the signal intensity and the correspondence with the theoretical m/z value (Δppm) (Table 3). The different species can be easily identified, with the isotopic pattern characteristic for the presence of chlorine and carbon atoms (chlorine and carbon cluster isotopes). In all cases, the species formed were identified without any ambiguity from their relative abundances. […] These values were in accordance with the theorical abundances, calculated from the exactive software for the isotopic pattern of the ions from m/z = 489.13606 to m/z = 494.13323.
High resolution mass spectrometry (HRMS) and spectra were recorded with an Exactive Plus mass spectrometer (Thermo Fisher Scientific, San Jose, CA, USA) equipped with a heated electrospray ionisation probe (HESI -II). Each mass analyzer was calibrated with Pierce®ESI positive and negative ion calibration solutions each week (Thermo Fisher Scientific). Optimization of voltages, gas values, and temperatures applied for ion transfer and ionization was performed in negative mode. The tuning parameters were optimized separately with reaction mixture obtained from reaction of nucleophile with the aldehyde. This was completed by infusing first individual solutions of each nucleophile or the aldehyde at 10 pmol/µL. Each reaction mixture was performed during 180 min at 37 °C with the compound at 0.5 mM in phosphate buffer 10 mM, pH = 7.4 and then the reaction mixture was diluted 1/400 in MeOH. The solution was injected with a syringe at a flow rate of 10 µL/min. […]

[8] = target: T1, recombinant human PD-L1 protein (rhPD-L1); parameters: method as in printed; settings: background statement of the introduction, ref not given; cited from earlier work
[9] = Metabolic stability in mouse liver microsomes; format: in vitro ADME
From the text: The metabolic stability of the compounds in mice liver microsomes was investigated using liver microsomes from male mice (BD Gentest™) with propranolol as a positive control, as described previously. Mouse plasma CD-1 was used to investigate the plasma stability of the molecules, with enalapril as a positive control, as described recently.

[10] = Solubility; format: physicochemical

T1 sequence (Q9NZQ7 19-239 limits assumed): as above

Compound	Kd [1]	IC50 [2]	Promotion of PD-L1 dimerization [4]	EC50 [6]	HRMS intensity of remaining 4-HNE [7]	melting point	Microsomal stability compared to compound 3 [9]	Solubility compared to compound 3 [10]	Reactivation of CTLL-2 cell proliferation ([3]; CTLL-2 cells with rhPD-L1)	DMPO kr [5]	DMPO kr/ka [5]	IC50 [3]	IC50 ([3]; Mus musculus, CTLL-2, 72 h)	Binding to PD-L1 [8]	kr value reduced by a factor compared to reference product 1 ([5]; DMPO assay)
CCC1=NN(c2ccc(Cl)cc2Cl)C(=O)C1 [Compound 4, 1-(2,4-dichlorophenyl)-3-ethyl-1H-pyrazol-5(4H)-one]	19 ± 3 nM	12 ± 5 nM	inactive	40900 nM	1.01 × 10^5	160 °C			inactive	4.40 10^10 M^−1 s^−1	10				
atezolizumab		47 ± 11 nM													
Oc1cc(-c2ccccc2F)nn1-c1ccc(Cl)cc1Cl [Compound 5, 1-(2,4-Dichlorophenyl)-3-(2-fluorophenyl)-1H-pyrazol-5-ol]	27 ± 4 nM	74 ± 7 nM	promoted the dimerization of PD-L1 in a dose-dependent manner	38200 nM	2.11 × 10^5	229 °C	slightly improved	slightly improved		9.74 10^10 M^−1 s^−1	23		43 ± 9 nM		2.6
COc1nc(OCc2cccc(-c3ccccc3)c2C)ccc1CNCCNC(C)=O [BMS-202, reference compound]												53 ± 17 nM			

More lines, main results first:

Kd [1]	IC50 [2]	Promotion of PD-L1 dimerization [4]	EC50 [6]	HRMS intensity of remaining 4-HNE [7]	melting point	Microsomal stability compared to compound 3 [9]	Solubility compared to compound 3 [10]	Compound	Reactivation of CTLL-2 cell proliferation ([3]; CTLL-2 cells with rhPD-L1)	DMPO kr [5]	DMPO kr/ka [5]	IC50 [3]	IC50 ([3]; Mus musculus, CTLL-2, 72 h)	Binding to PD-L1 [8]	kr value reduced by a factor compared to reference product 1 ([5]; DMPO assay)
		inactive	34000 nM	1.92 × 10^5	188 °C			COc1ccccc1C1=NN(c2ccc(Cl)cc2Cl)C(=O)C1 [Compound 3, 1-(2,4-Dichlorophenyl)-3-(2-methoxyphenyl)-1H-pyrazol-5(4H)-one]				79 ± 7 nM	70 nM		
			36500 nM					CC1=NN(c2ccc(Cl)cc2Cl)C(=O)C1 [Compound 2]		19.3 10^10 M^−1 s^−1	45		53 ± 11 nM		
			35800 nM	1.63 × 10^5				CC1=NN(c2ccccc2)C(=O)C1 [Compound 1, edaravone, reference compound]		25.9 10^10 M^−1 s^−1	60			does not bind to PD-L1	
